# Source: paper PMC11145868, “Protein target similarity is positive predictor of in vitro antipathogenic activity: a drug repurposing strategy for Plasmodium falciparum” (Journal of Cheminformatics, 2024)
# pEC50: −log10 of the molar value. Structures can show the parent of a compound that is named as a salt. Where two headings read alike, the source gives them in different places.
# How the values were obtained:
# [1] = system: P. berghei-luciferase sporozoites; assay: microbe, parasite or virus in culture; type: cell-based, Plasmodium berghei; details: Plasmodium berghei
# [2] = Mammalian cell cytotoxicity assay, HEK293T (CellTiter-Glo, 72 h); details: human, HEK293T cells
# [3] = system: P. falciparum Dd2-HLH; assay: microbe, parasite or virus in culture; type: cell-based, Plasmodium falciparum; details: Plasmodium falciparum
# [4] = Mammalian cell cytotoxicity assay, HepG2 (CellTiter-Glo, 72 h); details: human, HepG2 cells
# [5] = system: P. falciparum Dd2-HLH; assay: microbe, parasite or virus in culture; type: cell-based, Plasmodium falciparum; details: Plasmodium falciparum, DD2, 72 h, read-out: Blood stage 72h EC50
# [6] = HepG2, liver-stage parasites, 48 hours in culture, read-out: Liver stage 48h EC50
# [7] = DD2, 48 h, read-out: Blood stage 48h EC50
# [8] = DD2, read-out: EC50 (antiplasmodial, quoted in discussion from Supplementary Table 1)
Compound,"pEC50 [1, 6]",CC50 at 72 h [2] [nM],"pEC50 [3, 7]",CC50 at 72 h [4] [nM],pEC50 [5],"pEC50 ([1]; HepG2, 48 h, read-out: Liver stage 48h EC50)","pEC50 ([1]; liver-stage parasites, 48 h in culture, read-out: Liver 48 h EC50)","pEC50 ([3]; DD2, Hec50, 48 h, read-out: Blood stage 48 h EC50)","pEC50 [3, 8]"
N[C@H](C(=O)O)[C@@H]1CC(Cl)=NO1 [Acivicin],5.96,7730,6.68,1700,6.26,–,–,–,–
CC1=C(c2ccc(O)cc2)[C@H](c2ccc(OCCN3CCCCC3)cc2)Oc2cc(O)ccc21 [Acolbifene],5.55,2990,6.66,6210,6.14,–,–,–,–
Cc1cc(N)c2cc(NC(=O)Nc3ccc4nc(C)cc(N)c4c3)ccc2n1 [Aminoquinuride],5.46,> 9950,7.10,> 9990,6.35,–,–,–,–
COC(=O)[C@]12CCC(C)(C)C[C@H]1[C@H]1C(=O)C=C3[C@@]4(C)C=C(C#N)C(=O)C(C)(C)[C@@H]4CC[C@@]3(C)[C@]1(C)CC2 [Bardoxolone methyl],6.81,208,6.47,557,6.12,–,–,–,–
COc1cc(N2CCC(N3CCN(C)CC3)CC2)ccc1Nc1ncc(Cl)c(Nc2ccccc2P(C)(C)=O)n1 [Brigatinib],5.48,1390,7.00,136,6.46,–,–,–,–
O=C(NO)c1cnc(N2C[C@@H]3[C@H](C2)[C@H]3NCc2ccc3cc(F)ccc3n2)nc1 [CHR-3996],6.82,920,7.70,195,7.82,–,–,–,–
CC(C)C(=O)OCC(=O)[C@@]12O[C@H](C3CCCCC3)O[C@@H]1C[C@H]1[C@@H]3CCC4=CC(=O)C=C[C@]4(C)[C@H]3[C@@H](O)C[C@@]12C [Ciclesonide],5.48,–,6.70,> 9950,6.18,–,–,–,–
CCN(CC)CC[n+]1ccc2c(C)c3[nH]c4ccc(O)cc4c3c(C)c2c1 [Datelliptium Chloride],< 5.00,4690,–,505,6.71,–,–,–,–
CCCCN(CCCC)CCC(O)c1cc2c(Cl)cc(Cl)cc2c2cc(C(F)(F)F)ccc12 (centres unmarked) [Halofantrine HCl],5.73,> 9950,–,> 9950,9.00,–,–,–,–
C/C(=C\c1csc(C)n1)[C@@H]1C[C@@H]2O[C@]2(C)CCC[C@H](C)[C@H](O)[C@@H](C)C(=O)C(C)(C)[C@@H](O)CC(=O)N1 [Ixabepilone],6.06,15,7.38,7,–,–,–,–,–
CCNC(=O)c1noc(-c2cc(C(C)C)c(O)cc2O)c1-c1ccc(CN2CCOCC2)cc1 [Luminespib],7.54,11,7.42,–,7.40,–,–,–,–
C=CCn1c(=O)c2cnc(Nc3ccc(N4CCN(C)CC4)cc3)nc2n1-c1cccc(C(C)(C)O)n1 [MK-1775],5.21,310,6.23,–,6.17,–,–,–,–
CN(C)c1ccc2nc3ccc(=[N+](C)C)cc-3sc2c1 [Methylthioninium Chloride],5.98,1770,7.17,–,6.93,–,–,–,–
O=C1c2c(O)ccc(O)c2C(=O)c2c(NCCNCCO)ccc(NCCNCCO)c21 [Mitoxantrone],5.76,217,6.62,–,6.45,–,–,–,–
CC(C)(C)NC[C@H](O)COc1ccccc1C1CCCC1 [Penbutolol],4.70,> 9950,6.38,–,6.01,–,–,–,–
OC1(c2ccc(Cl)c(C(F)(F)F)c2)CCN(CCCC(c2ccc(F)cc2)c2ccc(F)cc2)CC1 [Penfluridol],5.50,1900,6.66,–,6.28,–,–,–,–

Compound,"pEC50 [1, 6]",CC50 at 72 h [2] [nM],"pEC50 [3, 7]",CC50 at 72 h [4] [nM],pEC50 [5],"pEC50 ([1]; HepG2, 48 h, read-out: Liver stage 48h EC50)","pEC50 ([1]; liver-stage parasites, 48 h in culture, read-out: Liver 48 h EC50)","pEC50 ([3]; DD2, Hec50, 48 h, read-out: Blood stage 48 h EC50)","pEC50 [3, 8]"
OC(CCN1CCCC1)(c1ccccc1)C1CCCCC1 (centres unmarked) [Procyclidine hydrochloride],< 5.00,> 9950,6.23,–,6.36,–,–,–,–
CNCCCC1c2ccccc2C=Cc2ccccc21 [Protriptyline hydrochloride],–,> 9950,6.37,–,6.02,< 5.00,–,–,–
C=C[C@H]1C[N@@]2CC[C@H]1C[C@@H]2[C@@H](O)c1ccnc2ccc(OC)cc12 [Quinidine],< 5.00,> 9950,7.39,–,7.08,–,–,–,–
"Cn1cc(CNCC2CCN(c3ncc(C(=O)NO)cn3)CC2)c2ccccc21 [Quisinostat, reference compound]",–,33,–,–,8.52,–,8.10,9.00,–
COCCN1CCN(Cc2ccc(-c3n[nH]c4c3C(=O)c3c(NC(=O)NN5CCOCC5)cccc3-4)cc2)CC1 [RGB-286638],7.06,58,6.86,–,6.52,–,–,–,–
O=C(CCCCCCNC(=O)c1cnc(N(c2ccccc2)c2ccccc2)nc1)NO [Ricolinostat],5.36,> 9950,6.26,–,6.11,–,–,–,–
c1cc(-c2nc3ccc(-c4ccc5nc(-c6ccncc6)[nH]c5c4)cc3[nH]2)ccn1 [Ridinilazole],6.67,> 9950,–,3110,7.05,–,–,–,–
CC[C@H](C(=O)N1CCCC[C@H]1C(=O)O[C@H](CCc1ccc(OC)c(OC)c1)c1cccc(OCC(=O)NCCNC(=O)COc2cccc([C@@H](CCc3ccc(OC)c(OC)c3)OC(=O)[C@@H]3CCCCN3C(=O)[C@@H](CC)c3cc(OC)c(OC)c(OC)c3)c2)c1)c1cc(OC)c(OC)c(OC)c1 [Rimiducid],< 5.00,> 9950,7.23,–,6.39,–,–,–,–
CC(C)n1nc(-c2ccc3oc(N)nc3c2)c2c(N)ncnc21 [Sapanisertib],6.18,102,6.73,–,6.52,–,–,–,–
COCCn1c2c([n+](Cc3cnccn3)c1C)C(=O)c1ccccc1C2=O [Sepantronium bromide],8.00,56,7.68,–,7.09,–,–,–,–
CC(=O)Nc1cccc(-n2c(=O)n(C3CC3)c(=O)c3c(Nc4ccc(I)cc4F)n(C)c(=O)c(C)c32)c1 [Trametinib dimethyl sulfoxide],–,> 9950,6.80,119,6.52,–,–,–,–
C/C=C/C[C@@H](C)C(=O)[C@H]1C(=O)N[C@@H](C(C)C)C(=O)N(C)CC(=O)N(C)[C@@H](CC(C)C)C(=O)N[C@@H](C(C)C)C(=O)N(C)[C@@H](CC(C)C)C(=O)N[C@@H](C)C(=O)N[C@H](C)C(=O)N(C)[C@@H](CC(C)C)C(=O)N(C)[C@@H](CC(C)C)C(=O)N(C)[C@@H](C(C)C)C(=O)N1C [Valspodar],8.52,> 9950,6.51,–,6.43,–,–,–,–
CC[C@]1(O)C[C@@H]2CN(CCc3c([nH]c4ccccc34)[C@@](C(=O)OC)(c3cc4c(cc3OC)N(C)[C@H]3[C@@](O)(C(=O)OC)[C@H](OC(C)=O)[C@]5(CC)C=CCN6CC[C@]43[C@@H]65)C2)C1 [Vinblastine sulfate],5.96,102,7.54,–,7.62,–,–,–,–
FC(F)c1nc2ccccc2n1-c1nc(N2CCOCC2)nc(N2CCOCC2)n1 [ZSTK-474],6.01,762,6.62,–,6.08,–,–,–,–
"CCOC(=O)[C@H]1O[C@@H]1C(=O)N[C@@H](CC(C)C)C(=O)NCCC(C)C [aloxistatin, reference compound]",< 5.00,> 9950,–,–,7.16,–,–,–,7.51
"COc1ncc(-c2ccc3nccc(-c4ccnnc4)c3c2)cc1NS(=O)(=O)c1ccc(F)cc1F [omipalisib, reference compound]",6.64,46,–,–,6.80,–,–,–,6.80
